Data as given in US20200339604A1, “PYRAZOLOPYRIMIDINE COMPOUNDS AS JAK INHIBITORS” (Genentech, Inc., priority 2018, published 2020).
Read-outs that look alike come from different tables or passages of the source.

Assays:
[1] = system: JAK1-dependent STAT6 phosphorylation downstream of IL-13 stimulation, BEAS-2B human bronchial epithelial cells; assay: JAK1 pathway assay in cell lines: IL-13 stimulated STAT6 phosphorylation in BEAS-2B cells (MSD); assay type: cell-based; details: IL-13 stimulation 15 min at EC90, read-out: IL-13 p-STAT6 BEAS-2B IC50
Procedure: JAK1 Pathway Assay in Cell Lines was Carried Out as Follows:
Inhibitor potency (EC50) was determined in cell-based assays designed to measure JAK1 dependent STAT phosphorylation. As noted above, inhibition of IL-4, IL-13, and IL-9 signaling by blocking the Jak/Stat signaling pathway can alleviate asthmatic symptoms in pre-clinical lung inflammation models (Mathew et al., 2001, J Exp Med 193(9): 1087-1096; Kudlacz et. al., 2008, Eur J. Pharmacol 582(1-3): 154-161).
In one assay approach, TF-1 human erythroleukemia cells obtained from the American Type Culture Collection (ATCC; Manassas, Va.) were used to measure JAK1-dependent STAT6 phosphorylation downstream of IL-13 stimulation. Prior to use in the assays, TF-1 cells were starved of GM-CSF overnight in OptiMEM medium (Life Technologies, Grand Island, N.Y.) supplemented with 0.5% charcoal/dextran stripped fetal bovine serum (FBS), 0.1 mM non-essential amino acids (NEAA), and 1 mM sodium pyruvate. The assays were run in 384-well plates in serum-free OptiMEM medium using 300,000 cells per well. In a second assay approach, BEAS-2B human bronchial epithelial cells obtained from ATCC were plated at 100,000 cells per well of a 96-well plate one day prior to the experiment. The BEAS-2B assay was run in complete growth medium (bronchial epithelial basal medium plus bulletkit; Lonza; Basel, Switzerland).
Test compounds were serially diluted 1:2 in DMSO and then diluted 1:50 in medium just before use. Diluted compounds were added to the cells, for a final DMSO concentration of […], and incubated for 30 m (for the TF-1 assay) or […] (for the BEAS-2B assay) at 37° C. Then, cells were stimulated with human recombinant cytokine at their respective EC90 concentrations, as previously determined for each individual lot. Cells were stimulated with IL-13 (R&D Systems, Minneapolis, Minn.) for 15 min at 37° C. The TF-1 cell reactions were stopped by the direct addition of 10× lysis buffer (Cell Signaling Technologies, Danvers, Mass.), whereas the BEAS-2B cell incubations were halted by the removal of medium and addition of 1× lysis buffer. The resultant samples were frozen in the plates at −80° C. Compound mediated inhibition of STAT6 phosphorylation was measured in the cell lysates using MesoScale Discovery (MSD) technology (Gaithersburg, Md.).

[2] = molecular target: T1, isolated recombinant JAK2 kinase domain (Homo sapiens, UniProt O60674); assay: JAK enzyme assay, JAK2 kinase domain (Caliper LabChip); assay type: biochemical; details: 0.2 nM JAK2, ATP 25 μM, Morrison tight binding model
T1 construct: isolated recombinant JAK1 and JAK2 kinase domain
T1 sequence (O60674 849-1124 limits assumed): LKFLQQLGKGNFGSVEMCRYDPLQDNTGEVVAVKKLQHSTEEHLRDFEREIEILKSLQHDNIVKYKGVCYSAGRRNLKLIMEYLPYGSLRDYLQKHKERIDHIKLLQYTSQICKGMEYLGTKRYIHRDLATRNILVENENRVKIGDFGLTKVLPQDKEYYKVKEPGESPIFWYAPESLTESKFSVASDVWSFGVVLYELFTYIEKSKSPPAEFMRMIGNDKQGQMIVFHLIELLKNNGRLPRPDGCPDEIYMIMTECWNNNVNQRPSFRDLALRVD
Procedure: (§1) JAK Enzyme Assays were Carried Out as Follows:
(§2) The activity of the isolated recombinant JAK1 and JAK2 kinase domain was measured by monitoring phosphorylation of a peptide derived from JAK3 ([…] fluorescently labeled on the N-terminus with 5-carboxyfluorescein) using the Caliper LabChip® technology (Caliper Life Sciences, Hopkinton, Mass.). To determine inhibition constants (K), compounds were diluted serially in DMSO and added to 50 μL kinase reactions containing purified enzyme (1.5 nM JAK1, or 0.2 nM JAK2), 100 mM HEPES buffer (pH 7.2), 0.015% Brij-35, 1.5 μM peptide substrate, ATP (25 μM), 10 mM MgCl2, 4 mM DTT at a final DMSO concentration of 2%.
(§3) Reactions were incubated at 22° C. in 384-well polypropylene microtiter plates for 30 minutes and then stopped by addition of 25 µL of an EDTA containing solution (100 mM HEPES buffer (pH 7.2), 0.015% Brij-35, 150 mM EDTA), resulting in a final EDTA concentration of 50 mM. After termination of the kinase reaction, the proportion of phosphorylated product was determined as a fraction of total peptide substrate using the Caliper LabChip® 3000 according to the manufacturer's specifications. K values were then determined using the Morrison tight binding model (Morrison, J. F., Biochim. Biophys. Acta. 185:269-296 (1969); William, J. W. and Morrison, J. F., Meth. Enzymol., 63:437-467 (1979)) modified for ATP-competitive inhibition [Ki=Ki, app/(1+[ATP]/Km,app)].

[3] = molecular target: T2, isolated recombinant JAK1 kinase domain (Homo sapiens, UniProt P23458); assay: JAK enzyme assay, JAK1 kinase domain (Caliper LabChip); assay type: biochemical; details: 1.5 nM JAK1, ATP 25 μM, Morrison tight binding model
T2 construct: isolated recombinant JAK1 and JAK2 kinase domain
T2 sequence (P23458 875-1153 limits assumed): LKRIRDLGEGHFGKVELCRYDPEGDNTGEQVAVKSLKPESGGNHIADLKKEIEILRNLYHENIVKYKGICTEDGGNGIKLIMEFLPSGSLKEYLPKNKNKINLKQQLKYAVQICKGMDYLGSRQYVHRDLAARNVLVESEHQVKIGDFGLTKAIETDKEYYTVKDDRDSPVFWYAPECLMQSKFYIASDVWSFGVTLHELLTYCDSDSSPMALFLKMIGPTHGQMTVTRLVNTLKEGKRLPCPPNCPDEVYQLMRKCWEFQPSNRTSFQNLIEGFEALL
Procedure: as §1, §2, §3

SMILES | Ki [2] [nM] | Ki [3] [nM] | IC50 ([1]; Homo sapiens, BEAS-2B, […]) [nM] | IC50 [1] [nM]
O=C(Nc1cn(C2CCN(CCN3CCOCC3)C2=O)nc1-c1cc(Cl)ccc1OC(F)F)c1cnn2cccnc12 (single isomer, unassigned) [Example 15, N-[3-[5-chloro-2-(difluoromethoxy)phenyl]-1-[1-(2-morpholinoethyl)-2-oxo-pyrrolidin-3-yl]pyrazol-4-yl]pyrazolo[1,5-a]pyrimidine-3-carboxamide] | 1 | 4.4 |  | 
Cn1[nH]cc(-n2cc(NC(=O)c3cnn4cccnc34)c(-c3cc(Cl)ccc3OC(F)F)n2)c1=O [Example 26] | 0.14 | 1.4 | 280 | 
O=C(Nc1cn(C2CCN(C3COC3)C2=O)nc1-c1cc(Cl)ccc1OC(F)F)c1cnn2cccnc12 (single isomer, unassigned) [Example 24, N-[3-[5-chloro-2-(difluoromethoxy)phenyl]-1-[1-(oxetan-3-yl)-2-oxo-pyrrolidin-3-yl]pyrazol-4-yl]pyrazolo[1,5-a]pyrimidine-3-carboxamide] | 0.98 | 3.9 |  | 57
O=C(Nc1cn(C2CCOC2=O)nc1-c1cc2c(cc1OC(F)F)NCCO2)c1cnn2cccnc12 (single isomer, unassigned) [Example 39, N-[3-[6-(difluoromethoxy)-3,4-dihydro-2H-1,4-benzoxazin-7-yl]-1-(2-oxotetrahydrofuran-3-yl)pyrazol-4-yl]pyrazolo[1,5-a]pyrimidine-3-carboxamide; formic acid] | 0.29 | 0.32 |  | 
CN1CCC(n2cc(NC(=O)c3cnn4cccnc34)c(-c3cc4c(cc3OC(F)F)NCCO4)n2)C1=O (single isomer, unassigned) [Example 10, N-[3-[6-(difluoromethoxy)-3,4-dihydro-2H-1,4-benzoxazin-7-yl]-1-(1-methyl-2-oxo-pyrrolidin-3-yl)pyrazol-4-yl]pyrazolo[1,5-a]pyrimidine-3-carboxamide] | 0.58 | 0.37 | 190 | 
CN1CCC(n2cc(NC(=O)c3cnn4cccnc34)c(-c3cc4c(cc3OC(F)F)NCCS4)n2)C1=O (single isomer, unassigned) [Example 12] | 0.11 | 0.15 |  | 
O=C(Nc1cn(C2CCOC2=O)nc1-c1cc2c(cc1OC(F)F)NCCS2)c1cnn2cccnc12 (single isomer, unassigned) [Example 34, N-[3-[6-(difluoromethoxy)-3,4-dihydro-2H-1,4-benzothiazin-7-yl]-1-(2-oxotetrahydrofuran-3-yl)pyrazol-4-yl]pyrazolo[1,5-a]pyrimidine-3-carboxamide] | 0.056 | 0.092 |  | 
O=C(Nc1cn(C2CCOC2=O)nc1-c1cc2c(cc1OC(F)F)NCCS2)c1cnn2cccnc12 (single isomer, unassigned) [Example 33, N-[3-[6-(difluoromethoxy)-3,4-dihydro-2H-1,4-benzothiazin-7-yl]-1-(2-oxotetrahydrofuran-3-yl)pyrazol-4-yl]pyrazolo[1,5-a]pyrimidine-3-carboxamide] | 0.095 | 0.17 |  | 

The next lines start with results.

Ki [2] [nM] | Ki [3] [nM] | SMILES | IC50 ([1]; Homo sapiens, BEAS-2B, […]) [nM] | IC50 [1] [nM]
0.45 | 0.79 | O=C(Nc1cn(C2CCCC2=O)nc1-c1cc(Cl)ccc1OC(F)F)c1cnn2cccnc12 (racemic) [Example 35, N-[3-[5-chloro-2-(difluoromethoxy)phenyl]-1-(2-oxocyclopentyl)pyrazol-4-yl]pyrazolo[1,5-a]pyrimidine-3-carboxamide] | 16 | 
0.48 | 1.8 | O=C(Nc1cn(C2CCNC2=O)nc1-c1cc(Cl)ccc1OC(F)F)c1cnn2cccnc12 (single isomer, unassigned) [Example 5, N-[3-[5-chloro-2-(difluoromethoxy)phenyl]-1-(2-oxopyrrolidin-3-yl)pyrazol-4-yl]pyrazolo[1,5-a]pyrimidine-3-carboxamide] | 40 | 
0.18 | 0.26 | O=C(Nc1cn(C2CCOC2=O)nc1-c1cc(OC(F)F)ccc1OC(F)F)c1cnn2cccnc12 (single isomer, unassigned) [Example 37, N-[3-[2,5-bis(difluoromethoxy)phenyl]-1-(2-oxotetrahydrofuran-3-yl)pyrazol-4-yl]pyrazolo[1,5-a]pyrimidine-3-carboxamide] |  | 14
0.11 | 0.17 | O=C(Nc1cn(C2CCOC2=O)nc1-c1cc(SC(F)F)ccc1OC(F)F)c1cnn2cccnc12 (single isomer, unassigned) [Example 32, N-[3-[2-(difluoromethoxy)-5-(difluoromethyl-sulfanyl)phenyl]-1-(2-oxotetrahydrofuran-3-yl)pyrazol-4-yl]pyrazolo[1,5-a]pyrimidine-3-carboxamide] |  | 6.6
2.1 | 4.1 | CN1CCCC(n2cc(NC(=O)c3cnn4cccnc34)c(-c3cc(Cl)ccc3OC(F)F)n2)C1=O (single isomer, unassigned) [Example 21, N-[3-[5-chloro-2-(difluoromethoxy)phenyl]-1-(1-methyl-2-oxo-3-piperidyl)pyrazol-4-yl]pyrazolo[1,5-a]pyrimidine-3-carboxamide] |  | 74
0.55 | 2.5 | CN1CCC(n2cc(NC(=O)c3cnn4cccnc34)c(-c3cc(SC(F)F)ccc3OC(F)F)n2)C1=O (single isomer, unassigned) [Example 19, N-[3-[2-(difluoromethoxy)-5-(difluoromethyl-sulfanyl)phenyl]-1-(1-methyl-2-oxo-pyrrolidin-3-yl)pyrazol-4-yl]pyrazolo[1,5-a]pyrimidine-3-carboxamide] |  | 59
0.096 | 0.15 | CSc1ccc(OC(F)F)c(-c2nn(C3CCOC3=O)cc2NC(=O)c2cnn3cccnc23)c1 (single isomer, unassigned) [Example 30, N-[3-[2-(difluoromethoxy)-5-methylsulfanyl-phenyl]-1-(2-oxotetrahydrofuran-3-yl)pyrazol-4-yl]pyrazolo[1,5-a]pyrimidine-3-carboxamide] |  | 11
0.5 | 0.77 | O=C(Nc1cn(C2CCOC2=O)nc1-c1cc(Cl)ccc1OC(F)F)c1cnn2cccnc12 (single isomer, unassigned) [Example 27, N-[3-[5-chloro-2-(difluoromethoxy)phenyl]-1-(2-oxotetrahydrofuran-3-yl)pyrazol-4-yl]pyrazolo[1,5-a]pyrimidine-3-carboxamide] |  | 24
0.42 | 0.6 | O=C(Nc1cn(C2CCOC2=O)nc1-c1cc2c(cc1OC(F)F)NCCO2)c1cnn2cccnc12 (single isomer, unassigned) [Example 38, N-[3-[6-(difluoromethoxy)-3,4-dihydro-2H-1,4-benzoxazin-7-yl]-1-(2-oxotetrahydrofuran-3-yl)pyrazol-4-yl]pyrazolo[1,5-a]pyrimidine-3-carboxamide] |  | 
